In the supplement of paper PMC13380429:

Legend:
Settings in all cases: 72 h
Caco-2 [1] = assay: cell viability relative to DMSO; higher = less toxic
Calu-3 [2] = assay: as above
HepG2 [3] = assay: as above
U2OS [4] = assay: as above
Caco-2 [5] = assay: relative viability EC50 (midpoint between 100% and the lowest measured viability); higher = less toxic
Calu-3 [6] = assay: as above
HepG2 [7] = assay: as above
U2OS [8] = assay: as above
Caco-2 [9] = assay: drug sensitivity score (DSS) for viability; higher = more toxic; extreme values may be limits of the assay
Calu-3 [10] = assay: as above
HepG2 [11] = assay: as above
U2OS [12] = assay: as above
Vero E6 [13] = assay: cell viability relative to DMSO; higher = less toxic
Vero E6 [14] = assay: relative viability EC50 (midpoint between 100% and the lowest measured viability); higher = less toxic
Vero E6 [15] = assay: drug sensitivity score (DSS) for viability; higher = more toxic; extreme values may be limits of the assay

Row | SMILES | cell viability (Caco-2 [1]; 1 nM) | cell viability (Caco-2 [1]; 10 nM) | cell viability (Caco-2 [1]; 100 nM) | cell viability (Caco-2 [1]; 1000 nM) | cell viability (Caco-2 [1]; 10000 nM) | cell viability (Calu-3 [2]; 1 nM) | cell viability (Calu-3 [2]; 10 nM) | cell viability (Calu-3 [2]; 100 nM) | cell viability (Calu-3 [2]; 1000 nM) | cell viability (Calu-3 [2]; 10000 nM) | cell viability (HepG2 [3]; 1 nM) | cell viability (HepG2 [3]; 10 nM) | cell viability (HepG2 [3]; 100 nM) | cell viability (HepG2 [3]; 1000 nM) | cell viability (HepG2 [3]; 10000 nM) | cell viability (U2OS [4]; 1 nM) | cell viability (U2OS [4]; 10 nM) | cell viability (U2OS [4]; 100 nM) | cell viability (U2OS [4]; 1000 nM) | cell viability (U2OS [4]; 10000 nM) | relative viability EC50 (Caco-2 [5]) | relative viability EC50 (Calu-3 [6]) | relative viability EC50 (HepG2 [7]) | relative viability EC50 (U2OS [8]) | drug sensitivity score (Caco-2 [9]) | drug sensitivity score (Calu-3 [10]) | drug sensitivity score (HepG2 [11]) | drug sensitivity score (U2OS [12]) | cell viability (Vero E6 [13]; 1 nM) | cell viability (Vero E6 [13]; 10 nM) | cell viability (Vero E6 [13]; 100 nM) | cell viability (Vero E6 [13]; 1000 nM) | cell viability (Vero E6 [13]; 10000 nM) | relative viability EC50 (Vero E6 [14]) | drug sensitivity score (Vero E6 [15])
1 | CCOC(CN1CCN(CC(C)C(=O)c2ccccc2)CC1)c1ccccc1 (stereo not given) [eprazinone] | 102% | 98.9% | 110% | 95.4% | 98.2% | 96% | 96.9% | 95.6% | 93% | 90.8% | 111% | 96.7% | 102% | 98.9% | 99.6% | 98.8% | 95.8% | 95.8% | 95.2% | 98.7% | > 10 µM | > 10 µM | > 10 µM | > 10 µM | 0 | 0 | 0 | 0 | – | – | – | – | – | – | –
2 | C[C@@H]1O[C@@H](O[C@H]2[C@H](Oc3cc(O)c4c(c3)O[C@H](c3ccc(O)cc3)CC4=O)O[C@H](CO)[C@@H](O)[C@@H]2O)[C@H](O)[C@H](O)[C@H]1O [Naringin (Naringoside)] | 92.3% | 95.9% | 97.9% | 96.3% | 102% | 110% | 96.9% | 98.8% | 103% | 98.8% | 104% | 112% | 90% | 97.7% | 98.9% | 99.6% | 94.7% | 101% | 98.2% | 108% | > 10 µM | > 10 µM | > 10 µM | > 10 µM | 0 | 0 | 0 | 0 | – | – | – | – | – | – | –
3 | C=C(c1ccccc1OCc1cccc(Cl)c1)n1ccnc1 [croconazole] | 102% | 104% | 90.9% | 87.8% | 69.6% | 94.4% | 104% | 97.5% | 93.1% | 92.1% | 102% | 101% | 102% | 110% | 88% | 96.2% | 104% | 93.2% | 103% | 90% | – | > 10 µM | > 10 µM | > 10 µM | 2.5 | 0 | 0 | 0 | 102% | 97% | 112% | 107% | 105% | > 10 µM | 0
4 | Cc1n[nH]c(C)c1Cc1sc2c(c1C(=O)N1C[C@H](O)CO1)c(=O)n(C)c(=O)n2CC(C)C | 91.3% | 79.3% | 77.2% | 67.4% | 69% | 102% | 86.3% | 99.4% | 93.3% | 99.8% | 97% | 108% | 95% | 98.8% | 109% | 97.8% | 92.6% | 89.4% | 86.7% | 89.7% | – | > 10 µM | > 10 µM | > 10 µM | 10.2 | 0 | 0 | 1.2 | 89.7% | 98.7% | 92.9% | 95.7% | 101% | > 10 µM | 0
5 | Cc1ccc2c(c1)C1(CCN(CCc3nc(-c4ccccc4)oc3C)CC1)OC(=O)N2 | 97% | 91.7% | 93.3% | 94.4% | 87.7% | 94.9% | 103% | 98.1% | 98% | 85.3% | 101% | 96% | 96.7% | 95.3% | 75.4% | 98.5% | 96.5% | 96.3% | 94% | 88.8% | > 10 µM | > 10 µM | > 10 µM | > 10 µM | 0 | 0.4 | 1.6 | 0 | 92.9% | 101% | 96.4% | 94.4% | 74.1% | – | 1.8
6 | c1ccc(-c2cnn3cc(-c4ccc(OCCN5CCOCC5)cc4)cnc23)cc1 [DMH4] | 105% | 97.9% | 93.6% | 96.1% | 74.3% | 101% | 107% | 89.6% | 114% | 85.9% | 96.4% | 95.1% | 98.2% | 91.5% | 50.7% | 102% | 101% | 99.6% | 98.6% | 80.8% | – | > 10 µM | – | > 10 µM | 1.6 | 0 | 4 | 0.7 | 97.1% | 101% | 101% | 91.4% | 104% | > 10 µM | 0
7 | C[C@H]1O[C@@H](n2cc(F)c(=O)[nH]c2=O)[C@H](O)[C@@H]1O [doxifluridine] | 82.5% | 106% | 93.3% | 99.3% | 65.6% | 98.6% | 116% | 91.3% | 98.9% | 90.9% | 96.6% | 96.1% | 76.3% | 108% | 56.6% | 99.9% | 99.4% | 100% | 101% | 90.6% | – | > 10 µM | – | > 10 µM | 1.7 | 0 | 1.8 | 0 | 108% | 96.1% | 103% | 105% | 87.5% | > 10 µM | 0
8 | Oc1ccc([C@H]2COc3cc(O)ccc3C2)cc1 [equol] | – | – | – | – | – | 97.2% | 111% | 99.2% | 92.6% | 91.2% | 94.2% | 105% | 110% | 94.8% | 97.3% | 98.5% | 103% | 97.9% | 102% | 99.6% | – | > 10 µM | > 10 µM | > 10 µM | – | 0 | 0 | 0 | 98.6% | 102% | 96.2% | 95.5% | 96.6% | > 10 µM | 0
9 | O=C(/C=C/c1c(C(=O)O)[nH]c2cc(Cl)cc(Cl)c12)Nc1ccccc1 [gavestinel] | 102% | 104% | 91% | 99.6% | 104% | 90.4% | 98.8% | 89.3% | 99.2% | 107% | 94.5% | 112% | 92.9% | 105% | 101% | 101% | 99.2% | 100% | 101% | 100% | > 10 µM | > 10 µM | > 10 µM | > 10 µM | 0 | 0 | 0 | 0 | – | – | – | – | – | – | –
10 | CCCSc1nc(N[C@@H]2C[C@H]2c2ccc(F)c(F)c2)c2nnn([C@@H]3C[C@H](OCCO)[C@@H](O)[C@H]3O)c2n1 [ticagrelor] | 98.1% | 99.5% | 98% | 97.1% | 86.5% | 99.9% | 99.6% | 101% | 103% | 104% | 107% | 112% | 95.9% | 99.1% | 89.5% | 104% | 96.3% | 101% | 103% | 96.3% | > 10 µM | > 10 µM | > 10 µM | > 10 µM | 0.3 | 0 | 0 | 0 | – | – | – | – | – | – | –
11 | CN1CCN(c2c(F)cc3c(=O)c(C(=O)O)cn4c3c2SCC4)CC1 [rufloxacin] | 95.1% | 105% | 93.9% | 91.7% | 73.8% | 92.1% | 103% | 97.5% | 84.4% | 101% | 98.9% | 99.5% | 104% | 103% | 92.2% | 99.8% | 100% | 94.7% | 104% | 96.8% | – | > 10 µM | > 10 µM | > 10 µM | 1.7 | 0 | 0 | 0 | 99.9% | 101% | 96.4% | 101% | 95.7% | > 10 µM | 0
12 | Cc1ccc(NC(=O)C2(c3ccc4c(c3)OC(F)(F)O4)CC2)nc1-c1cccc(C(=O)O)c1 [lumacaftor] | 106% | 103% | 106% | 92.3% | 93.8% | 113% | 103% | 101% | 98.6% | 108% | – | – | – | – | – | – | – | – | – | – | > 10 µM | > 10 µM | – | – | 0 | 0 | – | – | – | – | – | – | – | – | –
13 | O=C(O)C1CN(Cc2ccc(-c3nc4cc(Cc5ccccc5F)ccc4s3)c(F)c2)C1 [TC-SP-14] | 97% | 81.7% | 84.2% | 99.1% | 81.8% | 91.2% | 90.5% | 102% | 95.1% | 107% | 109% | 121% | 90.3% | 119% | 90% | 99.4% | 97.9% | 98.8% | 102% | 101% | > 10 µM | > 10 µM | > 10 µM | > 10 µM | 0 | 0 | 0 | 0 | – | – | – | – | – | – | –
14 | COc1ccc(CNC(=O)Nc2ncc([N+](=O)[O-])s2)cc1 | 105% | 103% | 95.5% | 103% | 73.7% | 104% | 107% | 94.9% | 107% | 96.5% | 113% | 107% | 102% | 99.8% | 30.3% | 96.1% | 104% | 96.5% | 102% | 90.8% | – | > 10 µM | 3.15 µM | > 10 µM | 0.9 | 0 | 3.9 | 0 | 106% | 104% | 101% | 102% | 97.2% | > 10 µM | 0
15 | O=C1c2ccccc2C(Cc2ccnc(F)c2)(Cc2ccnc(F)c2)c2ccccc21 [DMP-543] | 97.2% | 100% | 92.5% | 81.2% | 72.9% | 103% | 92.1% | 85.9% | 92% | 81.3% | 90.1% | 100% | 94.4% | 95.4% | 89.4% | 99.8% | 105% | 96% | 96.6% | 95.1% | – | > 10 µM | > 10 µM | > 10 µM | 3.3 | 1.7 | 0 | 0 | 101% | 101% | 100% | 97.7% | 94.8% | > 10 µM | 0
16 | COc1ccc2c(Oc3ccc(NC(=O)c4c(C)n(CC(C)(C)O)n(-c5ccccc5)c4=O)nc3)ccnc2c1 [AMG458] | 99.6% | 106% | 90.8% | 95.9% | 72% | 99.1% | 106% | 100% | 92.7% | 86.6% | 99.3% | 92.2% | 98.2% | 88.3% | 65.8% | 102% | 116% | 99.3% | 103% | 93.3% | – | > 10 µM | – | > 10 µM | 1.8 | 0.5 | 3 | 0 | 104% | 103% | 104% | 98.6% | 102% | > 10 µM | 0
